Laboratory results published in patent publication US20060234919A1, “Use” (priority 2001, published 2006).

How the values were obtained:
[1] = tested on: carrageenan induced edema; assay: carrageenan induced edema of the rat hindpaw (plethysmometer); format: in vivo; conditions: for carrageenan induced edema, percentage increase from pre-treatment values in hindpaw volume: 1000 μg/kg s.c., p<0.05
Procedure: Male Sprague-Dawley rats (260-300 g for s.c. injected and 340-380 g for i.c.v. injected) were used (B&K Universal A B, Sollentuna, Sweden). The animals arrived at least one week before experiments and were housed three-four per cage (except animals provided with i.c.v. cannulas that were housed individually) with free access to food (R36, Ewos, Södertälje, Sweden) and water. The light schedule was a 12/12 h light/dark cycle, and ambient temperature was 20±2° C.
Oxytocin and the oxytocin antagonist (1-deamino-2-D-Tyr-(OEt)-4-Thr-8-Orn-oxytocin) (Ferring, Malmö, Sweden) were dissolved in physiological saline and injected in a volume of 1 ml/kg s.c. in the dorsal neck. Dexamethasone (Decadron®, Merck, Sharp & Dome, USA) was administered intramuscularly (i.m.). Oxytocin given i.c.v. was dissolved in a volume of 5 μl physiological saline and slowly injected over a period of 1 minute through the i.c.v. guide cannula via a 25 G stain-less-steel injection needle connected to a 10 μl Hamilton syringe via a polyethylene tube. Controls received saline in the same amounts.
The model of inflammation used, the carrageenan induced edema, is a commonly used model for studies of inflammation and for testing novel anti-inflammatory drugs (Winter C A, Risley E A, Nuss G W. Carrageenan-induced edema in hind paw of the rat as an assay for anti-inflammatory drugs. Proc Soc Exp Biol Med 1962; 111:544-7). To produce acute inflammation, carrageenan, 2 mg in 0.1 ml saline, was injected s.c. into the plantar region of the rat right hindpaw.
The rats were treated s.c. with oxytocin (1.0, 10, 100 or 1000 μg/kg (n=8 in each group) or saline (n=8+8) immediately before the carrageenan injection. The edema of the right hindpaw was measured (volume in ml) using a plethysmometer (Ugo Basile, type 7150, Florence, Italy) before treatment, half an hour after, one hour after, and then every hour up to 6 or 10 hours after treatment.
The results are presented as means±SD. Statistical analysis was performed by means of a 1-way ANOVA, followed by Fisher's test for post-hoc comparisons. In the analysis of myeloperoxidase accumulation, a Student's t-test was used. P-values of 0.05 or less were regarded as statistically significant.
The rats were treated s.c. with oxytocin (1000 μg/kg) and the oxytocin antagonist (1000 μg/kg) (the antagonist was given 30 minutes before oxytocin) (n=8), the oxytocin antagonist alone (1000 μg/kg) (n=8) or saline (n=8) immediately before the carrageenan injection. Measurements as in Example 1.
The rats were treated i.c.v. with oxytocin (1.0 μg/kg) (n=6) or saline (n=7) immediately before the carrageenan injection. Measurements as in Example 1. The animals were anaesthetised with sodiumpentobarbital (50 mg/kg) (Apoteksbolaget, Sweden) injected intraperitoneally (i.p.). The scull was uncovered, a hole was drilled in the right parietal bone and a guide cannula (21 G) was fixed stereotactically to the scull by means of acrylic dental cement. The coordinates were 1.00 mm posterior and 1.30 mm lateral to the bregma. […] The injection needles (25 G) reached 3.80 mm below the dura mater, with the tip of the needle in the right lateral ventricle. The animals were allowed one week of recovery after the operation. At the end of the experiment, the placement of the guide cannula was checked by injection of 2 μl of toluidine blue.
The rats were treated i.m. with dexamethasone (10 mg/kg) (n=6) or saline (n=6) immediately before the carrageenan injection. The edema of the right hindpaw was measured using the plethysmometer before treatment, and at 2, 4 and 6 hours after treatment.

[2] = tested on: magnesium deficiency-induced dermatosis; assay: atopic dermatitis-like symptoms in hypomagnesaemic hairless rats; format: in vivo, rat
Procedure: Male hairless rats (Ico:OFA hr/hr) were obtained from Iffa Credo (Lyon, France) immediately after weaning and housed under conventional standardised conditions in polycarbonate cages with wood chip bedding in a room with 12:12 h light/dark cycle, 24±1° C. The rats were fed with a standard maintenance diet low in magnesium (Altromin, Lage, Germany, C10350; 0.012% Mg^2+/kg dry matter) and demonised water was supplied ad libitum. This diet rendered the animals hypomagnesaemic. Magnesium (mean±SD, mmol/l) in serum fell to 0.58±0.23 on day 4, 0.36±0.18 on day 10, and to the lowest value (0.24±0.11) on day 15 on the diet. The lowest concentration was maintained up to the termination of the experiments. Under these conditions, the onset of clinical signs was after 6-8 days on the diet. The first signs were pronounced reddening and swelling of both ear lobes in all animals. […] Simultaneously with the onset of erythema, the rats began to scratch intensively and bite themselves, causing erosions and excoriations. Head, trunk, paws and tail were uniformly and intensely reddened within 2 days after the onset of signs. This stage was followed by the development of small papules and irregularly shaped plaques 1-2 cm in diameter on the trunk. The skin lesions and the signs of pruritus were most pronounced after 10-11 days on the diet, and were then constant for approximately 4 days. This acute stage was then followed by a decrease in general erythema and, subsequently, by the remission of papules and plaques within approximately 5 days. However, complete clearance was not observed.
Drug, formulations and treatment regimens: For topical administration, the oxytocin was dissolved in ethanol/propylene glycol (1 mg/ml).
The treatment was performed either unilaterally with the active drug on the right ear and with the vehicle contralaterally or bilaterally on both ears with oxytocin and vehicle, respectively. Therapeutic treatment was started immediately after clinical signs had fully developed and was given twice daily for 3 consecutive days. Prophylactic application was started on day 3 on the diet (i.e. 3-5 days before the expected onset of signs) and was given once daily for 7 days until day 9. Active drug or vehicle was applied in volumes of 20 μl to both sides of the ears.
For assessment of the therapeutic efficacy of oxytocin the animals were examined clinically once daily during the treatment period and for a further 7 days (topical treatment). Prophylactic activity was determined by daily examinations performed during the treatment period and a further 9 days. A score index (scale 0-3) for ear lesions was applied: 0, no change; 1, slight edematous, erythematous swelling; 2, moderate edematous, erythematous swelling; 3, pronounced edematous, erythematous swelling. In all experiments, the skin lesions were evaluated clinically by a single investigator unaware of the treatment allocation.

Substance: Oxytocin
- effect on carrageenan induced paw edema ([1]; 1.0 μg/kg i.c.v., p=0.13): did not decrease the paw edema
- effect on carrageenan induced edema ([1]; 1.0 μg/kg s.c.): No effect
- effect on carrageenan induced edema ([1]; 10 μg/kg s.c.): No effect
- effect on carrageenan induced edema ([1]; 100 μg/kg s.c., 4-10 hours after the injection): reduced the edema significantly
- carrageenan induced edema, percentage increase from pre-treatment values in hindpaw volume ([1]; 1 hour after the injection, saline controls 43±11%): 21±16%
- carrageenan induced edema, percentage increase from pre-treatment values in hindpaw volume ([1]; 2 hours after the injection, saline controls 61±22%): 30±17%
- carrageenan induced edema, percentage increase from pre-treatment values in hindpaw volume ([1]; 3 hours after the injection, saline controls 79±21%): 41 ±16%
- hindpaw volume compared to controls ([1]; oxytocin 1000 μg/kg s.c. with oxytocin antagonist 1000 μg/kg s.c. given 30 minutes before, 1-10 hours after carrageenan): significant reduction of the hindpaw volume
- hindpaw volume compared to controls ([1]; oxytocin 1000 μg/kg s.c. with oxytocin antagonist 1000 μg/kg s.c., at 24 hours): significant difference was gone
- sum of daily scores (ear lesions, scale 0-3) from day 3 to 10 ([2]; prophylactic topical, once daily day 3 to 9, vehicle-treated ears 9.2±0.7): 2.4±1.1
- time after the last dose until which signs remained suppressed ([2]; therapeutic, bilateral application, signs reappeared 4 or 5 days after the last dose): 3 days
- local erythematous swelling of the ears ([2]; therapeutic, bilateral application, within 1 day after the first dose): significantly inhibited
- local erythematous swelling of the ear ([2]; therapeutic, epicutaneously on one ear, 1 mg/ml, within 1 day after the start of treatment): significantly reduced local erythematous swelling
- systemic effect (distant erythematous lesions on the trunk and pruritus) ([2]; topical dose applied on the ears): no systemic effect
